Assay results reported in BigSolDB 2.1.

CC(C(=O)O)c1ccc2c(c1)CC(=O)c1ccccc1S2 (stereo not drawn)
solubility (mole fraction)
Conditions | 278.15 K | 283.15 K | 288.15 K | 293.15 K | 298.15 K | 303.15 K | 308.15 K | 313.15 K | 318.15 K | 323.15 K
in 1,4-dioxane | – | – | 0.0923 | 0.103 | 0.114 | 0.127 | 0.142 | 0.157 | 0.173 | 0.19
in 2-ethoxyethanol | 0.0373 | 0.0458 | 0.0518 | 0.0596 | 0.0677 | 0.0779 | 0.0911 | 0.106 | 0.12 | 0.136
in 2-methoxyethanol | 0.0278 | 0.036 | 0.0437 | 0.0516 | 0.0619 | 0.074 | 0.0878 | 0.102 | 0.119 | 0.138
in ethanol | 0.00265 | 0.00396 | 0.00522 | 0.0071 | 0.00956 | 0.012 | 0.0166 | 0.0222 | 0.03 | 0.0418
in ethyl acetate | 0.00812 | 0.00951 | 0.0112 | 0.0131 | 0.0154 | 0.0176 | 0.0216 | 0.0256 | 0.0304 | 0.0362
